Assay results published in ChEMBL document CHEMBL3044978, “Efficacy of acibenzolar-S-methyl and two strobilurins, azoxystrobin and trifloxystrobin, for the control of corky root of tomato and verticillium wilt of eggplant” (Crop Prot, 2006).
Activity calls are given as the source filed them. No cut-off for these calls is given here.

Assays:
[1] = test system: Solanum melongena; experiment: Phytotoxicity in Solanum melongena (eggplant) assessed as leaf chlorosis at 100 to 250 mg/l after 80 to 120 days under field condition; type: organism-based; conditions: in vivo
[2] = test system: Verticillium dahliae; experiment: Fungicidal activity against Verticillium dahliae infected eggplant assessed as reduction in severity of external symptoms at 100 to 250 mg/l after 80 to 120 days under field condition relative to untreated control; type: functional; parameters: scale not given: the % may be the effect or the level left
[3] = test system: Solanum lycopersicum; experiment: Phytotoxicity in Solanum lycopersicum (tomato) plant assessed as plant stunting at 87.5 to 100 mg/l after 120 days under greenhouse condition; type: organism-based; conditions: in vivo, 2880 h
[4] = test system: Pseudopyrenochaeta lycopersici; experiment: Fungicidal activity against Pyrenochaeta lycopersici infected tomato plant assessed as diseased root surface at 100 to 250 mg/l after 100 days under field condition relative to untreated control; type: functional
[5] = test system: Solanum lycopersicum; experiment: Phytotoxicity in Solanum lycopersicum (tomato) plant assessed as leaf chlorosis at 100 to 250 mg/l after 120 days under field condition; type: organism-based; conditions: in vivo, 2880 h
[6] = test system: Pseudopyrenochaeta lycopersici; experiment: Fungicidal activity against Pyrenochaeta lycopersici infected tomato plant assessed as diseased root surface at 87.5 to 100 mg/l after 120 days under greenhouse condition relative to untreated control; type: functional
[7] = test system: Solanum melongena; experiment: Phytotoxicity in Solanum melongena (eggplant) assessed as plant stunting at 87.5 to 100 mg/l after 80 days under greenhouse condition; type: organism-based; conditions: in vivo, 1920 h
[8] = test system: Verticillium dahliae; experiment: Fungicidal activity against Verticillium dahliae infected eggplant assessed as vascular discoloration at 100 to 250 mg/l after 120 days under field condition relative to untreated control; type: functional, organism-based
[9] = test system: Verticillium dahliae; experiment: Fungicidal activity against Verticillium dahliae infected eggplant assessed as wilted leaves at 87.5 to 100 mg/l after 80 days under greenhouse condition relative to untreated control; type: functional
[10] = test system: Solanum melongena; experiment: Phytotoxicity in Solanum melongena (eggplant) assessed as leaf chlorosis at 12.5 mg/l after 80 to 120 days under field condition; type: organism-based; conditions: in vivo
[11] = test system: Solanum melongena; experiment: Phytotoxicity in Solanum melongena (eggplant) assessed as leaf chlorosis at 12.5 to 87.5 mg/l after 80 days under greenhouse condition; type: organism-based; conditions: in vivo, 1920 h
[12] = test system: Solanum lycopersicum; experiment: Phytotoxicity in Solanum lycopersicum (tomato) plant assessed as leaf chlorosis at 12.5 mg/l after 120 days under field condition; type: organism-based; conditions: in vivo, 2880 h
[13] = test system: Solanum lycopersicum; experiment: Induction of systemic acquired resistance activity in Solanum lycopersicum (tomato) plant infected with Pyrenochaeta lycopersici assessed as diseased root surface at 12.5 mg/l after 100 days under field condition relative to untreated control; type: functional
[14] = test system: Solanum lycopersicum; experiment: Phytotoxicity in Solanum lycopersicum (tomato) plant assessed as plant stunting at 12.5 to 87.5 mg/l after 120 days under greenhouse condition; type: organism-based; conditions: in vivo, 2880 h
[15] = test system: Solanum melongena; experiment: Induction of systemic acquired resistance activity in Solanum melongena (eggplant) infected with Verticillium dahliae assessed as reduction in severity of external symptoms at 12.5 mg/l after 80 to 120 days under field condition relative to untreated control; type: functional; parameters: scale not given: the % may be the effect or the level left
[16] = test system: Solanum melongena; experiment: Phytotoxicity in Solanum melongena (eggplant) assessed as plant stunting at 12.5 to 87.5 mg/l after 80 days under greenhouse condition; type: organism-based; conditions: in vivo, 1920 h
[17] = test system: Solanum lycopersicum; experiment: Phytotoxicity in Solanum lycopersicum (tomato) plant assessed as leaf chlorosis at 12.5 to 87.5 mg/l after 120 days under greenhouse condition; type: organism-based; conditions: in vivo, 2880 h
[18] = test system: Solanum melongena; experiment: Induction of systemic acquired resistance activity in Solanum melongena (eggplant) infected with Verticillium dahliae assessed as vascular discoloration at 12.5 mg/l after 120 days under field condition relative to untreated control; type: functional, organism-based
[19] = test system: Solanum melongena; experiment: Phytotoxicity in Solanum melongena (eggplant) assessed as plant stunting after 80 days under greenhouse condition; type: organism-based; conditions: in vivo, 1920 h
[20] = test system: Pseudopyrenochaeta lycopersici; experiment: Fungicidal activity against Pyrenochaeta lycopersici infected tomato plant assessed as diseased root surface after 120 days under greenhouse condition relative to untreated control; type: functional
[21] = test system: Verticillium dahliae; experiment: Fungicidal activity against Verticillium dahliae infected eggplant assessed as wilted leaves after 80 days under greenhouse condition relative to untreated control; type: functional
[22] = test system: Pseudopyrenochaeta lycopersici; experiment: (§1) Fungicidal activity against Pyrenochaeta lycopersici infected tomato plant assessed as diseased root surface applied as dipping of seedling roots into fungicide water suspension before transplanting and two soil drenches post transplanting after 100 days under field condition relative to untreated control; type: functional
[23] = test system: Verticillium dahliae; experiment: (§2) Fungicidal activity against Verticillium dahliae infected eggplant assessed as vascular discoloration applied as dipping of seedling roots into fungicide water suspension before transplanting and two soil drenches post transplanting after 120 days under field condition relative to untreated control; type: functional, organism-based
[24] = test system: Verticillium dahliae; experiment: as §2, with “reduction in severity of external symptoms” for “vascular discoloration”, “one” for “two”, “drench” for “drenches”, “after 80 to” for “after”; type: functional; parameters: scale not given: the % may be the effect or the level left
[25] = test system: Pseudopyrenochaeta lycopersici; experiment: as §1, with “one” for “two”, “drench” for “drenches”; type: functional
[26] = test system: Pseudopyrenochaeta lycopersici; experiment: Fungicidal activity against Pyrenochaeta lycopersici infected tomato plant assessed as diseased root surface applied as one soil drench and two foliar sprays post transplanting after 100 days under field condition relative to untreated control; type: functional
[27] = test system: Solanum lycopersicum; experiment: Phytotoxicity in Solanum lycopersicum (tomato) plant assessed as plant stunting after 120 days under greenhouse condition; type: organism-based; conditions: in vivo, 2880 h
[28] = test system: Verticillium dahliae; experiment: Fungicidal activity against Verticillium dahliae infected eggplant assessed as vascular discoloration applied as dipping of seedling roots into fungicide water suspension before transplanting and one soil drench post transplanting after 120 days under field condition relative to untreated control; type: functional, organism-based
[29] = test system: Verticillium dahliae; experiment: Fungicidal activity against Verticillium dahliae infected eggplant assessed as vascular discoloration applied as one soil drench and two foliar sprays post transplanting after 120 days under field condition relative to untreated control; type: functional, organism-based
[30] = test system: Verticillium dahliae; experiment: as §2, with “reduction in severity of external symptoms” for “vascular discoloration”, “after 80 to” for “after”; type: functional; parameters: scale not given: the % may be the effect or the level left
[31] = test system: Solanum melongena; experiment: Phytotoxicity in Solanum melongena (eggplant) assessed as plant stunting during early growth stage after 80 to 120 days under field condition; type: organism-based; conditions: in vivo
[32] = test system: Verticillium dahliae; experiment: Fungicidal activity against Verticillium dahliae infected eggplant assessed as reduction in severity of external symptoms applied as one soil drench and two foliar sprays post transplanting after 80 to 120 days under field condition relative to untreated control; type: functional; parameters: scale not given: the % may be the effect or the level left
[33] = test system: Solanum lycopersicum; experiment: Phytotoxicity in Solanum lycopersicum (tomato) plant assessed as plant stunting during early growth stage after 120 days under field condition; type: organism-based; conditions: in vivo, 2880 h

With CO/N=C(\C(=O)OC)c1ccccc1CO/N=C(\C)c1cccc(C(F)(F)F)c1 as the compound, how does the Activity [1] read?
Its Activity is “Non-toxic”.

And the Activity [2]?
Its Activity is 17.6%.

And the Activity [3]?
Its Activity is “Non-toxic”.

And the Activity [4]?
Its Activity is 48.7%.

What about the Activity [5] of the same compound?
Its Activity is “Non-toxic”.

And the Activity [6]?
Its Activity is 93.3%.

What about the Activity [7] of the same compound?
The Activity was “Non-toxic”.

And the Activity [8]?
Its Activity is “inactive”.

And the Activity [9]?
Its Activity is 78.1%.

Which results are given for CSC(=O)c1cccc2nnsc12 [ACIBENZOLAR-S-METHYL]?
Activity [10]: Non-toxic; Activity [11]: Toxic; Activity [12]: Non-toxic; Activity [13]: 62.7%; Activity [14]: Toxic; Activity [15]: 6.9%; Activity [16]: Toxic; Activity [17]: Toxic; Activity [18]: inactive

What does the source list for CO/C=C(/C(=O)OC)c1ccccc1Oc1cc(Oc2ccccc2C#N)ncn1 [AZOXYSTROBIN]?
Activity [19]: Toxic; Activity [20]: 98.3%; Activity [21]: 95.1%; Activity [22]: 83.7%; Activity [23]: inactive; Activity [24]: 29.4%; Activity [25]: 73.5%; Activity [26]: 81.7%; Activity [27]: Toxic; Activity [28]: inactive; Activity [29]: inactive; Activity [30]: 24.6%; Activity [31]: Toxic; Activity [32]: 24.6%; Activity [33]: Toxic
